Data from patent US20120190814A1, “Thiol Protecting Group” (UCL BUSINESS PLC, priority 2009, published 2012).

Test system: GIRK currents
Test: patch clamp assay, control treatment with Pertussis toxin or GIRK inhibitor
Type: cell-based, human
Conditions: Tertiapin 100 nM, pertussis toxin 100 ng/ml overnight
Method: HEK 293 cells expressing HKIR3.1/3.2 channel and human somatostatin receptor 2 were treated with these compounds, and whole cell patch-clamp current recordings taken.
Whole cell patch-clamp current recordings were performed with an Axopatch 200B amplifier (Axon Instruments) using fire-polished pipettes with a resistance of 3-4 MΩ pulled from filamented borosilicated glass capillaries (Harvard Apparatus, 1.5 mm OD×1.17 mm ID). Data was acquired and analysed via a Digidata 1322A interface (Axon Instruments) and pCLAMP software (version 8.1, Axon Instruments). A fast perfusion system was used to apply somatostatin and analogues (Rapid Solution Changer, RSC-160, Bio-Logic France). Cells were clamped at −60 mV. The extracellular solution was (mM): NaCl 80, KCl 60, CaCl22, MgCl21, HEPES 10, NaH2PO4 0.33, glucose 10, pH 7.4; while the intracellular solution was (mM): K gluconate 110, KCl 20, NaCl 10, MgCl2 1, MgATP 2, EGTA 2 GTP 0.3, pH 7.4. After agonist application, current activated with a delay “lag” followed by a rapid rise to peak amplitude “time to peak”. After removal of the agonist, the current decays back to baseline. For each cell it was assessed if flow artifacts resulting from the pressure of drug application were present. This was done by applying bath solution from one of the sewer pipes at the beginning of the recordings. […]

Row | Substance | GIRK currents when cells were treated with control inhibitor
1 | Pertussis toxin | currents were largely inhibited
2 | Tertiapin Q | currents were largely inhibited
